Laboratory results published in patent US20150126465A1, “PROCESS FOR PRODUCING DERIVATIVES OF PYROSTEGIA VENUSTA, DERIVATIVES OF PYROSTEGIA VENUSTA, PHARMACEUTICAL COMPOSITIONS AND ITS USES” (priority 2011, published 2015).
Converted amounts (≈) assume the structure as drawn. Where two headings read alike, the source gives them in different places.

Legend:
Type in all cases: cell-based
[1] = system: Candida albicans ATCC 10231; test: MIC/CFM by microdilution (CLSI M27-A2); conditions: Candida albicans, ATCC10231; for MIC: read-out: MIC
[2] = system: Candida tropicalis USP B3; test: MIC by microdilution (CLSI M27-A2); conditions: Candida tropicalis, USPB3; Table 14, C. Tropicalis UPS B3; read-out: MIC
[3] = system: Candida tropicalis USP 1658; test: MIC by microdilution (CLSI M27-A2); conditions: Candida tropicalis, USP1658; Table 12, C. tropicalis USP 1658, 48 h, 35° C.; read-out: MIC
[4] = system: Candida parapsilosis ATCC 22019; test: MIC/CFM by microdilution (CLSI M27-A2); conditions: Lodderomyces parapsilosis, ATCC22019; for MIC: read-out: MIC
[5] = system: Candida parapsilosis USP 1933; test: MIC/CFM by microdilution (CLSI M27-A2); conditions: Lodderomyces parapsilosis, USP1933; for MIC: read-out: MIC
[6] = system: Candida albicans USP 1565; test: MIC by microdilution (CLSI M27-A2); conditions: Candida albicans, USP1565; Table 12, C. albicans USP 1565, 48 h, 35° C.; read-out: MIC
[7] = system: Candida guilhermondii USP; test: MIC/CFM by microdilution (CLSI M27-A2); conditions: for MIC: read-out: MIC
Candida krusei ATCC 6258 = test: MIC/CFM by microdilution (CLSI M27-A2); conditions: Pichia kudriavzevii, ATCC6258, read-out: MIC
[8] = system: Candida albicans OF-M3-20; test: MIC/CFM by microdilution (CLSI M27-A2); conditions: Candida albicans, OFM320; for MIC: read-out: MIC
Procedure: (§1) Pure substances termed P1 and P2 previously dissolved in 20% DMSO, were diluted in RPMI medium, with final concentrations of 96 μg.mL-1. […] The same was also tested individually, diluted in RPMI medium, with initial concentration of 1 μL.mL-1. […] Cultures of Candida sp. were prepared and standardized in […] saline solution at 0.85%. For inoculums standardization, a spectrophotometer equipment was used, with wavelength at 530 nm and absorbance adjustment between 0.130 and 0.150, having as white the saline solution free of inoculum or any other contaminant, corresponding to concentrations of 10^6 CFU/mL. In this condition the inoculum “mother” was diluted 50 times and from this inoculum “child” the dilution was performed 20 times to obtain a standard inoculum in 10^3 cells per well. […] To aid in the growth view, were added to the wells dye 50 μL 2,3,5-triphenyltetrazolium chloride (TTC) at 5 mg.mL “1, being performed the readings after 4 hours of incubation. Prior to the addition of dye, aliquots of 96-well plate were transferred to Petri with Agar-Sabouraud Dextrose to determine the Minimum Fungicidal Concentration. Plates were incubated for 24 hours at 35° C.

[9] = system: Candida albicans OF-M7-19; test: MIC/CFM by microdilution (CLSI M27-A2); conditions: Candida albicans, OFM719; for MIC: read-out: MIC
Procedure: as §1

Candida albicans USP 1 = test: MIC/CFM by microdilution (CLSI M27-A2); conditions: Candida albicans, USP1; for MIC: read-out: MIC
Procedure: as §1

[10] = system: Microsporum canis ATCC 32903; test: MIC by microdilution, filamentous fungi (CLSI M38-A); conditions: ATCC32903, 168 h; Table 13, Microsporum canis ATCC 32903, 7 days, 28° C.; read-out: MIC
Procedure: (§2) Pure substances termed P1 and P2 previously dissolved in 20% DMSO, were diluted in RPMI medium, with final concentrations of 96 μg.mL-1. […] Cultures of filamentous fungi described below were inoculated in Agar-Batata Dextrose medium and inoculated for 7 days, at 28° C. Colonies of cultures inoculated for 7 days in an oven at 28° C. were shrouded with 0.85% saline solution, scraped and then transferred to conical tubes. After resting for 5 minutes, the supernatant was transferred to new conical tubes for subsequent quantification in spectrophotometer, at 530 nm, with the transmittance adjustment of 80-82% for A. niger and 70% for other microorganisms. After adjustment, there was a 1:50 dilution in RPM. The determination of Minimum Inhibitory Concentration was performed after 7 days, at 28° C. After the incubation period, aliquots of 96-well plates were transferred to Petri plates with Potato Dextrose Agar, to determine the Minimum Fungicidal Concentration. Plates were inoculated for more 7 days, at 28° C.

[11] = system: Phomopsis longicolla (soy isolate); test: as above; conditions: Diaporthe longicolla, 168 h; Table 13, Phomopsis longicolla- soy, 7 days, 28° C.; read-out: MIC
Procedure: as §2

[12] = system: Trichophyton menthagrophyton ATCC 9533; test: as above; conditions: ATCC9533, 168 h; Table 13, Trichophyton menthagrophyton ATCC 9533, 7 days, 28° C.; read-out: MIC
Procedure: as §2

C. Albicans USP 2 = test: MIC/CFM against Candida sp. strains
Candida glabrata ATCC = test: MIC/CFM against Candida sp. strains; conditions: Nakaseomyces glabratus, Table 14, Candida glabrata ATCC

- MIC ([1]; Table 12, C. albicans ATCC 10231, 48 h, 35° C.): 4 µg/mL (≈ 9.61 µM)
- MIC ([1]; Table 14, C. Albicans ATCC 10231): < 0.5 µg/mL
- MIC [2]: < 0.5 µg/mL
- MIC [3]: < 2 µg/mL
- MIC ([4]; Table 12, C. parapsilosis ATCC 22019, 48 h, 35° C.): 1 µg/mL (≈ 2.4 µM)
- MIC ([4]; Table 14, C. parapsilosis ATCC 22019): 1 µg/mL (≈ 2.4 µM)
- MIC ([5]; Table 12, C. parapsilosis USP 1933, 48 h, 35° C.): 1 µg/mL (≈ 2.4 µM)
- MIC ([5]; Table 14, C. parapsilosis USP 1933 ATCC): < 0.5 µg/mL
- MIC [6]: < 0.125 µg/mL
- MIC ([7]; Candida, Table 12, C. guilhermondii USP, 48 h, 35° C.): 2 µg/mL (≈ 4.81 µM)
- MIC ([7]; Table 14, Candida guilhermondi USPATCC): 1 µg/mL (≈ 2.4 µM)
- MIC (Candida krusei ATCC 6258; Table 12, C. krusei ATCC 6258, 48 h, 35° C.): < 1 µg/mL
- MIC (Candida krusei ATCC 6258; Table 14, C. krusei ATCC): 1 µg/mL (≈ 2.4 µM)
- MIC ([8]; Table 12, C. albicans OF M3-20, 48 h, 35° C.): < 0.125 µg/mL
- MIC ([8]; Table 14, C. Albicans OF M3-20): < 0.5 µg/mL
- MIC ([9]; Table 12, C. albicans OF M7-19, 48 h, 35° C.): < 0.125 µg/mL
- MIC ([9]; Table 14, C. Albicans OF M7-19): < 0.5 µg/mL
- MIC (Candida albicans USP 1; Table 12, C. albicans USP 1, 48 h, 35° C.): < 0.125 µg/mL
- MIC (Candida albicans USP 1; Table 14, C. Albicans USP 1): 1 µg/mL (≈ 2.4 µM)
- MIC [10]: 2 µg/mL (≈ 4.81 µM)
- MIC [11]: < 0.125 µg/mL
- MIC [12]: 2 µg/mL (≈ 4.81 µM)
- MIC (C. Albicans USP 2; Table 14, C. Albicans USP 2): < 0.5 µg/mL
- MIC (Candida glabrata ATCC): < 0.5 µg/mL
SMILES: Clc1ccc(COC(Cn2ccnc2)c2ccc(Cl)cc2Cl)c(Cl)c1 (stereo not drawn) [Miconazol]
- MFC ([1]; Table 14, C. Albicans ATCC 10231, read-out: CFM (Minimum Fungicidal Concentration)): 1 µg/mL (≈ 2.4 µM)
- MFC ([4]; Table 14, C. parapsilosis ATCC 22019, read-out: CFM (Minimum Fungicidal Concentration)): 1 µg/mL (≈ 2.4 µM)
- MFC ([5]; Table 14, C. parapsilosis USP 1933 ATCC, read-out: CFM (Minimum Fungicidal Concentration)): < 0.5 µg/mL
- MFC ([7]; Table 14, Candida guilhermondi USPATCC, read-out: CFM (Minimum Fungicidal Concentration)): 1 µg/mL (≈ 2.4 µM)
- MFC ([8]; Table 14, C. Albicans OF M3-20, read-out: CFM (Minimum Fungicidal Concentration)): < 0.5 µg/mL
- MFC ([9]; Table 14, C. Albicans OF M7-19, read-out: CFM (Minimum Fungicidal Concentration)): < 0.5 µg/mL
- MFC (Candida albicans USP 1; Table 14, C. Albicans USP 1, read-out: CFM (Minimum Fungicidal Concentration)): 4 µg/mL (≈ 9.61 µM)
- MFC (C. Albicans USP 2; Table 14, C. Albicans USP 2, read-out: CFM (Minimum Fungicidal Concentration)): < 0.5 µg/mL
- MFC (Candida glabrata ATCC; read-out: CFM (Minimum Fungicidal Concentration)): 2 µg/mL (≈ 4.81 µM)
